Laboratory results reported in patent publication US20190017029A1, “Generation of Expandable Cardiovascular Progenitor Cells” (The J. David Gladstone Institutes, a testament trust …, priority 2016, published 2019).

Experiments:
Assay type in all cases: cell-based, mouse
[1] = tested on: ieCPC-CMs; assay: Beating frequency and Ca2+ transients in ieCPC-CMs, pharmacological studies
Method: Contracting cardiomyocytes derived from ieCPCs (ieCPC-CMs) were dispersed by first treating cells with Collagenase B for 5-10 min and then with Accutase for 5 min. Dissociated cells were replated onto matrigel-coated coverslips (Warner Instruments). After visible beating was reconfirmed, the coverslips were loaded with the Ca^2+-sensitive fluorescent indicator Fluo-4 (see below), and then placed in a superfusion bath (Warner Instruments) on a Nikon TiS inverted microscope equipped with a microfluorometer (lonOptix). Superfusion solutions were warmed to 30° C. with a superfusion system and heated perfusion pencil (ValveLink, AutoMate Scientific).
The ieCPC-CMs on coverslips were loaded with Fluo-4 AM in a 1:10 mixture of the indicator dissolved in dry dimethyl sulfoxide at 5 mM, plus Powerload concentrate (Life Technologies). This mixture was diluted 100-fold into extracellular Tyrode's solution and substituted for culture medium in dishes containing coverslips (final indicator concentration, 5 μM). […] Fluo-4 fluorescence transients were recorded with a standard filter set with excitation and emission centered on 480 nm and 535 nm, respectively (Chroma Technology).
Fluorescence was obtained from contracting cells plus a cell-free border using a cell-framing adaptor (IonOptix). Background fluorescence, recorded after removing the cell(s) from the field of view, was subtracted from all recordings. […] Background-corrected fluorescence transients were expressed relative to the diastolic fluorescence between spontaneous APs and were considered to reflect underlying changes in intracellular Ca^2+ concentration. Unless stated, reagents were from Sigma Chem. Co. Pharmacological studies were conducted on the spontaneous fluorescence transients of non-patch-clamped myocytes, and, to maximize coverslip usage, pharmacological agents were applied locally (only to the cell or cluster of interest) with the perfusion pencil.

[2] = tested on: ieCPC-SMCs; assay: Contractile assay of smooth muscle cells in vitro; conditions: 100 μM carbachol; seen in primary SMCs, not in undifferentiated ieCPCs
Method: ieCPCs, ieCPC-SMCs, and primary SMCs were treated with carbachol (100 μM, Sigma-Aldrich) and monitored with a Zeiss Axio Observer microscope in a time-lapse manner at 10-minute intervals for 1 hour. Cell-surface areas were then calculated with ImageJ software.

[3] = tested on: ieCPCs; assay: Cardiac (CM) differentiation of ieCPCs, cTnT expression; conditions: 20 ng/ml BMP4 or 5 μM IWP2 versus basal differentiation medium
Method: For cardiac differentiation, ieCPCs were passaged onto 96-well matrigel-coated plates at a density of […] cells/cm^2 and cultured in serum-free differentiation (SFD) medium for 10 days. IWP2 (5 μM) was added to SFD medium during the first six days to increase the yield of cardiomyocytes (CMs) in the functional characterization assays.
Differentiation efficiency of each cell type was calculated with qPCR, flow cytometry, and/or an In Cell Analyzer 2000 (General Electric Healthcare).
After washing cells three times with PBS, the cells were incubated with isotype-matched Alexa Fluorescence-conjugated secondary antibodies (Invitrogen) for 1 hour at room temperature. […] The expression of cTnT (measured by multiplying staining intensity and area) and Isl1 or α-SMA (percentage in total cells) were monitored and analyzed by an IN Cell Analyzer 2000.
To detect intracellular antigens, dissociated cells were fixed and permeabilized with a BD Cytofix/Cytoperm™ Fixation/Permeabilization Kit (BD Biosciences), and then incubated with antibodies for cTnT (MS-295-P1 Thermo Scientific; 1:200) and α-SMA (A-2547, Sigma-Aldrich; 1:200) at 4° C. overnight. After three washes, cells were incubated with isotype-matched Alexa Fluorescence-conjugated secondary antibodies (Invitrogen) for 1 hour at room temperature and detected by an LSR II Flow Cytometer (BD Biosciences).

[4] = tested on: Flk-1^+/PdgfR-α^+ cells; assay: Flow cytometry of Flk-1+/PdgfR-α+ cells during CASD cardiac reprogramming of 2nd MEFs treated with BACS; conditions: NU6140 4 μM along with BACS from day 8; day 14
Method: A Cell-Activation and Signaling-Directed (CASD) system-based cardiac reprogramming was conducted using methods described by Efe et al. (2011). Briefly, 2nd MEFs at passage 3 were seeded onto geltrex (Gibco)-coated plates at a density of 2.5×10^4 cells/well of a 12-well plate in MEF medium (day −2). Doxycycline (DOX; 2 μg/ml, Sigma-Aldrich) was added into the medium one day later (day −1) and the cells were cultured for another day. Medium was then changed to reprogramming medium (knockout DMEM supplemented with 5% knockout serum replacement (KSR), 15% embryonic stem cell (ESC)-qualified FBS, 1× Glutamax, 1×NEAA, 0.1 mM β-mercaptoethanol (β-ME), 1% ESC-qualified nucleosides (Millipore), 0.5 μM Jak inhibitor 1 (JI1; Millipore), and 2 μg/ml DOX) at day 0. This medium was renewed every 2 days. […]
On day 8, the medium was switched to ieCPC basal medium (Advanced DMEM/F12: Neural basal (1:1) supplemented with 1×N2, 1×B27 without Vitamin A, 1× Glutamax, 1×NEAA, 0.05% bovine serum albumin (BSA), and 0.1 mM β-ME) supplemented with BACS (5 ng/ml BMP4, 10 ng/ml Activin A, 3 μM CHIR99021, and 2 μM SU5402 (Tocris Bioscience)). JI1 (0.5 μM) was included to suppress the establishment of pluripotency until the cells were ready for purification at day 13. […]

C[N+](C)(C)CCOC(N)=O [carbachol]
effect on the isoproterenol-induced increase of frequency ([1]; 10 μM carbachol): blocked
contraction of ieCPC-SMCs [2]: induced contraction

Cc1ccc2nc(NC(=O)CSc3nc4c(c(=O)n3-c3ccccc3)SCC4)sc2c1 [IWP2]
cardiac differentiation of ieCPCs (cTnT) [3]: dramatically enhanced

CCN(CC)C(=O)c1ccc(Nc2nc(OCC3CCCCC3)c3[nH]cnc3n2)cc1 [NU6140]
ratio of Flk-1+/PdgfR-α+ cells [4]: dramatically decreased

Cn1c(=O)c2c(ncn2C)n(C)c1=O [caffeine]
Ca2+ transients (release from sarcoplasmic reticulum) ([1]; 10 mM caffeine): elicited large Ca^2+ transients

CC(C)NCC(O)c1ccc(O)c(O)c1 (stereo not shown) [isoproterenol]
frequency of cell contraction and spontaneous Ca2+ transients ([1]; 1 μM isoproterenol): significantly increased

B1: BMP4: member of the group of bone morphogenic proteins and a ventral mesoderm inducer (protein, UniProt P12644 293-408, looked up)
Bone morphogenetic protein 4: SPKHHSQRARKKNKNCRRHSLYVDFSDVGWNDWIVAPPGYQAFYCHGDCPFPLADHLNSTNHAIVQTLVNSVNSSIPKACCVPTELSAISMLYLDEYDKVVLKNYQEMVVEGCGCR
cardiac differentiation of ieCPCs (cTnT) [3]: significantly impaired
